Values quoted from earlier work in patent US20070298029A1, “Treatment of Neurodegenerative Diseases by the Use of Degs Inhibitors” (priority 2004, published 2007).
pKi: −log10 of the molar value.

Target: T1, dihydroceramide desaturase (Rattus norvegicus, UniProt Q5XIF5)
T1 sequence (Q5XIF5 1-323): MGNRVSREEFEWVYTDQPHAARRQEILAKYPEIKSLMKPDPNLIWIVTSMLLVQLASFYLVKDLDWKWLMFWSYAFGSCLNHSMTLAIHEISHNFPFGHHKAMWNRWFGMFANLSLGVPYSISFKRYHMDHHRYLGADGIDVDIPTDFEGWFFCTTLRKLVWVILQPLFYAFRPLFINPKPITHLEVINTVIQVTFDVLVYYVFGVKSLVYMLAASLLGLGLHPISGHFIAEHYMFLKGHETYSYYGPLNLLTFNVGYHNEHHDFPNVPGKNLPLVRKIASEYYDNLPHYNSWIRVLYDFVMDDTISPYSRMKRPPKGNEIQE
Conditions: competitive inhibitor

pKi: 5.22
SMILES: CCCCCCCCCCCCCC1=C([C@H](O)[C@@H](CO)NC(=O)CCCCCCC)C1 [GT11, N-[(1R,2S)-2-hydroxy-1-hydroxymethyl-2-(2-tridecyl-1-cyclopropenyl)ethyl]octanamide]
